{"source": "ChEMBL document CHEMBL4828739", "about": "“Study on the structure-activity relationship of dihydroartemisinin derivatives: Discovery, synthesis, and biological evaluation of dihydroartemisinin-bile acid conjugates as potential anticancer agents” (Eur J Med Chem, 2021)", "type_in_all_cases": "ADME, organism-based", "key": {"[1]": {"assay": "Clearance in Sprague-Dawley rat plasma at 5 mg/kg, iv by UPLC-MS/MS analysis"}, "[2]": {"assay": "Volume of distribution at steady state in Sprague-Dawley rat plasma at 5 mg/kg, iv by UPLC-MS/MS analysis", "details": "read-out: Vdss"}, "[3]": {"assay": "Half life in Sprague-Dawley rat plasma at 5 mg/kg, iv by UPLC-MS/MS analysis"}, "[4]": {"assay": "AUClast in Sprague-Dawley rat plasma at 5 mg/kg, iv by UPLC-MS/MS analysis", "set-up": "route intravenous, time 0 - last, dose 5 mg/kg"}, "[5]": {"assay": "AUC (0 to infinity) in Sprague-Dawley rat plasma at 5 mg/kg, iv by UPLC-MS/MS analysis", "set-up": "route intravenous, time infinity, dose 5 mg/kg"}, "[6]": {"assay": "MRT (0 to infinity) in Sprague-Dawley rat plasma at 5 mg/kg, iv by UPLC-MS/MS analysis"}, "[7]": {"assay": "Tmax in Sprague-Dawley rat plasma at 10 mg/kg, po by UPLC-MS/MS analysis"}, "[8]": {"assay": "Cmax in Sprague-Dawley rat plasma at 10 mg/kg, po by UPLC-MS/MS analysis", "set-up": "route oral, dose 10 mg/kg"}, "[9]": {"assay": "Half life in Sprague-Dawley rat plasma at 10 mg/kg, po by UPLC-MS/MS analysis"}, "[10]": {"assay": "AUClast in Sprague-Dawley rat plasma at 10 mg/kg, po by UPLC-MS/MS analysis", "set-up": "route oral, time 0 - last, dose 10 mg/kg"}, "[11]": {"assay": "AUC (0 to infinity) in Sprague-Dawley rat plasma at 10 mg/kg, po by UPLC-MS/MS analysis", "set-up": "time infinity, route oral, dose 10 mg/kg"}, "[12]": {"assay": "Oral bioavailability in Sprague-Dawley rat plasma at 10 mg/kg by UPLC-MS/MS analysis"}}}
{"smiles": "C[C@H]1[C@@H](O[C@@H]2CC[C@@]3(C)[C@@H](C2)C[C@H](O)[C@@H]2[C@@H]3CC[C@]3(C)[C@@H]([C@H](C)CCC(=O)O)CC[C@@H]23)O[C@@H]2O[C@]3(C)CC[C@H]4[C@H](C)CC[C@@H]1[C@@]24OO3", "values": [{"measurement": "clearance", "setting": "[1]", "result": 8.2, "unit": "mL/min/kg"}, {"measurement": "Vd", "setting": "[2]", "result": 0.346, "unit": "L/kg"}, {"measurement": "half-life", "setting": "[3]", "result": 46.4, "unit": "min"}, {"measurement": "AUC(0-t)", "setting": "[4]", "result": 10200, "unit": "ng·h/mL"}, {"measurement": "AUC(0-inf)", "setting": "[5]", "result": 10200, "unit": "ng·h/mL"}, {"measurement": "MRT inf", "setting": "[6]", "result": 42.2, "unit": "min"}, {"measurement": "Tmax", "setting": "[7]", "result": 100, "unit": "min"}, {"measurement": "Cmax", "setting": "[8]", "result": 1110, "unit": "ng/mL"}, {"measurement": "half-life", "setting": "[9]", "result": 49.4, "unit": "min"}, {"measurement": "AUC(0-t)", "setting": "[10]", "result": 4190, "unit": "ng·h/mL"}, {"measurement": "AUC(0-inf)", "setting": "[11]", "result": 4430, "unit": "ng·h/mL"}, {"measurement": "bioavailability", "setting": "[12]", "result": 20.6, "unit": "%"}]}
